Source: ChEMBL document CHEMBL5725787, “Fused pyrimidine compound or salt thereof” (2017)
pIC50: −log10 of the molar value.

Target: Tyrosine-protein kinase BTK (Homo sapiens, UniProt Q06187)
Assay: BTK Inhibitory Activity: With regard to the setting of the conditions for a method for measuring the inhibitory activity of a compound against BTK kinase activity in vitro, it is described in the consumable reagent supplies price list for LabChip (registered trademark) series of PerkinElmer, Inc. that FL-PEPTIDE 2 corresponds to a substrate peptide for the measurement of BTK kinase activity. Therefore, FL-PEPTIDE 2 was used as a substrate. The purified recombinant human BTK protein used in the test was purchased from Carna Biosciences, Inc.With regard to the measurement of the inhibitory activity of the compounds, firstly, the compounds of the present invention were diluted stepwise with dimethyl sulfoxide (DMSO). Subsequently, BTK protein, a substrate peptide (final concentration was 1 μM), magnesium chloride (final concentration was 10 mM), ATP (final concentration was 45 μM), and a DMSO solution of the compounds of the present invention (final concentration of DMSO was 5%) were added to a buffer solution for kinase reaction (20 mM HEPES (pH 7.5), 2 mM dithiotheitol, 0.01% Triton X-100), and after the solution was incubated for 40 minutes at 25° C., a kinase reaction was carried out. The reaction was terminated by adding EDTA thereto in order to obtain a final concentration of 30 mM. […]

Sequence of Tyrosine-protein kinase BTK (Q06187 whole entry): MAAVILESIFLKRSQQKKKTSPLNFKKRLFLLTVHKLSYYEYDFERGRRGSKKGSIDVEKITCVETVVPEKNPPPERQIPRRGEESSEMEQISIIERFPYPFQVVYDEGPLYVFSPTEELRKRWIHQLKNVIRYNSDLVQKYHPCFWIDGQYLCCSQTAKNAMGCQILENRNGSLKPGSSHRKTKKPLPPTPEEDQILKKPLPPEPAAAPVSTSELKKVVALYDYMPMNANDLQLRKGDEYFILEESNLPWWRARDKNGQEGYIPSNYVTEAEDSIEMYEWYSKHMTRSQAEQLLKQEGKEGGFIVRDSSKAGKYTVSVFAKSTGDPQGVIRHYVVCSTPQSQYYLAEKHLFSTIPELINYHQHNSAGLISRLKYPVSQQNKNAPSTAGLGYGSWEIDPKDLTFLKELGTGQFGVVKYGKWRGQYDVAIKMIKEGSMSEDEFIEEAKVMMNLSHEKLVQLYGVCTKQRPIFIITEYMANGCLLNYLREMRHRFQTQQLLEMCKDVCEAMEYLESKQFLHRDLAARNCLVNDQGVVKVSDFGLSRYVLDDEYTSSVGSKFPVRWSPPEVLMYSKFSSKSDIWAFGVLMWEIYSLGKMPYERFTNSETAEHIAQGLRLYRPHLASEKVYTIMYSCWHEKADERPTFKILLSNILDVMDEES

How did the pIC50 turn out when `C=CC(=O)N1CC[C@@H](n2nc(C(=O)Nc3nc4cc(-c5ccccc5)ccc4o3)c3c(N)ncnc32)C1` was run?
The pIC50 was 9.35.
